According to ChEMBL document CHEMBL1123842, “Structural modification study of mitoxantrone (DHAQ). Chloro-substituted mono- and bis[(aminoalkyl)amino]anthraquinones” (1987):

Assays:
[1] = system: Colon adenocarcinoma cell line; experiment: In vitro cytotoxicity against Human colon adenocarcinoma cells was determined; format: functional
L1210 = experiment: In vitro cytotoxicity against L1210 leukemia cells was determined; format: functional; settings: Mus musculus
P388 [2] = experiment: In vivo antineoplastic activity was determined in BDF1 mice implanted with P388 leukemia and activity is expressed as T/C at 100 mg/kg ip dose (Q4dx2 treatment); format: functional, Mus musculus; settings: route intraperitoneal
P388 [3] = experiment: In vivo antineoplastic activity was determined in BDF1 mice implanted with P388 leukemia and activity is expressed as T/C at 200 mg/kg ip dose (Q4dx2 treatment); format: functional, Mus musculus; settings: route intraperitoneal
P388 [4] = experiment: In vivo antineoplastic activity was determined in BDF1 mice implanted with P388 leukemia and activity is expressed as T/C at 400 mg/kg ip dose (Q4dx2 treatment); format: functional, Mus musculus; settings: route intraperitoneal
P388 [5] = experiment: In vivo antineoplastic activity was determined in BDF1 mice implanted with P388 leukemia and activity is expressed as T/C at 60 mg/kg ip dose (Q1dx5 treatment); settings: route intraperitoneal
P388 [6] = experiment: In vivo antineoplastic activity was determined in BDF1 mice implanted with P388 leukemia and activity is expressed as T/C at 30 mg/kg ip dose (Q1dx5 treatment); settings: route intraperitoneal
P388 [7] = experiment: In vivo antineoplastic activity was determined in BDF1 mice implanted with P388 leukemia and activity is expressed as T/C at 120 mg/kg ip dose (Q1dx5 treatment); settings: route intraperitoneal
P388 [8] = experiment: In vivo antineoplastic activity was determined in BDF1 mice implanted with P388 leukemia and activity is expressed as T/C at 100 mg/kg ip dose (Q4dx5 treatment); format: functional, Mus musculus; settings: route intraperitoneal
P388 [9] = experiment: In vivo antineoplastic activity was determined in BDF1 mice implanted with P388 leukemia and activity is expressed as T/C at 200 mg/kg ip dose (Q1dx5 treatment); settings: route intraperitoneal
P388 [10] = experiment: Antineoplastic activity was determined in BDF1 mice in vivo implanted with P388 leukemia and t/c was determined at 40 mg/kg ip dose (Q4dx9 treatment); format: functional, Mus musculus; settings: route intraperitoneal
P388 [11] = experiment: In vivo antineoplastic activity was determined in BDF1 mice implanted with P388 leukemia and activity is expressed as T/C at 80 mg/kg ip dose (Q1dx9 treatment); settings: route intraperitoneal
P388 [12] = experiment: In vivo antineoplastic activity was determined in BDF1 mice implanted with P388 leukemia and activity is expressed as T/C at 160 mg/kg ip dose (Q1dx9 treatment); settings: route intraperitoneal
P388 [13] = experiment: In vivo antineoplastic activity was determined in BDF1 mice implanted with P388 leukemia and activity is expressed as T/C at 80 mg/kg ip dose (Q4dx2 treatment); format: functional, Mus musculus; settings: route intraperitoneal
P388 [14] = experiment: In vivo antineoplastic activity was determined in BDF1 mice implanted with P388 leukemia and activity is expressed as T/C at 40 mg/kg ip dose (Q4dx2 treatment); format: functional, Mus musculus; settings: route intraperitoneal
P388 [15] = experiment: In vivo antineoplastic activity was determined in BDF1 mice implanted with P388 leukemia and activity is expressed as T/C at 0.12 mg/kg; format: functional, Mus musculus
P388 [16] = experiment: In vivo antineoplastic activity was determined in BDF1 mice implanted with P388 leukemia and activity is expressed as T/C at 0.25 mg/kg; format: functional, Mus musculus
P388 [17] = experiment: In vivo antineoplastic activity was determined in BDF1 mice implanted with P388 leukemia and activity is expressed as T/C at 0.5 mg/kg; format: functional, Mus musculus
P388 [18] = experiment: In vivo antineoplastic activity was determined in BDF1 mice implanted with P388 leukemia and activity is expressed as T/C at 1 mg/kg; format: functional, Mus musculus
P388 [19] = experiment: In vivo antineoplastic activity was determined in BDF1 mice implanted with P388 leukemia and activity is expressed as T/C at 0.06 mg/kg; format: functional, Mus musculus
P388 [20] = experiment: In vivo antineoplastic activity was determined in BDF1 mice implanted with P388 leukemia and activity is expressed as T/C at 2 mg/kg; format: functional, Mus musculus
B16 [21] = experiment: In vivo antineoplastic activity was determined in BDF1 mice implanted with B16 melanoma and activity expressed as T/C at 80 mg/kg ip dose (Q1Dx9 treatment); format: functional, Mus musculus; settings: route intraperitoneal
B16 [22] = experiment: In vivo antineoplastic activity was determined in BDF1 mice implanted with B16 melanoma and activity expressed as T/C at 25 mg/kg ip dose (Q1Dx9 treatment); format: functional, Mus musculus; settings: route intraperitoneal
B16 [23] = experiment: In vivo antineoplastic activity was determined in BDF1 mice implanted with B16 melanoma and activity expressed as T/C at 50 mg/kg ip dose (Q1Dx9 treatment); format: functional, Mus musculus; settings: route intraperitoneal
B16 [24] = experiment: In vivo antineoplastic activity was determined in BDF1 mice implanted with B16 melanoma and activity expressed as T/C at 6.25 mg/kg ip dose (Q1Dx9 treatment); format: functional, Mus musculus; settings: route intraperitoneal
B16 [25] = experiment: In vivo antineoplastic activity was determined in BDF1 mice implanted with B16 melanoma and activity expressed as T/C at 12.5 mg/kg ip dose (Q1Dx9 treatment); format: functional, Mus musculus; settings: route intraperitoneal
B16 [26] = experiment: In vivo antineoplastic activity was determined in BDF1 mice implanted with B16 melanoma and activity expressed as T/C at 40 mg/kg ip dose (Q1Dx9 treatment); format: functional, Mus musculus; settings: route intraperitoneal
B16 [27] = experiment: In vivo antineoplastic activity was determined in BDF1 mice implanted with B16 melanoma and activity expressed as T/C at 20 mg/kg ip dose (Q1Dx9 treatment); format: functional, Mus musculus; settings: route intraperitoneal
B16 [28] = experiment: In vivo antineoplastic activity was determined in BDF1 mice implanted with B16 melanoma and activity expressed as T/C at 100 mg/kg ip dose (Q1Dx9 treatment); format: functional, Mus musculus; settings: route intraperitoneal
B16 [29] = experiment: In vivo antineoplastic activity was determined in BDF1 mice implanted with B16 melanoma and activity expressed as T/C at 160 mg/kg ip dose (Q1Dx9 treatment); format: functional, Mus musculus; settings: route intraperitoneal
P388 [30] = experiment: In vivo antineoplastic activity was determined in BDF1 mice implanted with P388 leukemia and activity is expressed as T/C at 6.25 mg/kg ip dose (Q4dx5 treatment); format: functional, Mus musculus; settings: route intraperitoneal
P388 [31] = experiment: In vivo antineoplastic activity was determined in BDF1 mice implanted with P388 leukemia and activity is expressed as T/C at 12.5 mg/kg ip dose (Q4dx5 treatment); format: functional, Mus musculus; settings: route intraperitoneal
P388 [32] = experiment: In vivo antineoplastic activity was determined in BDF1 mice implanted with P388 leukemia and activity is expressed as T/C at 25 mg/kg ip dose (Q1dx5 treatment); settings: route intraperitoneal
P388 [33] = experiment: In vivo antineoplastic activity was determined in BDF1 mice implanted with P388 leukemia and activity is expressed as T/C at 50 mg/kg ip dose (Q1dx5 treatment); settings: route intraperitoneal
P388 [34] = experiment: In vivo antineoplastic activity was determined in BDF1 mice implanted with P388 leukemia and activity is expressed as T/C at 100 mg/kg ip dose (Q1dx5 treatment); settings: route intraperitoneal
P388 [35] = experiment: In vivo antineoplastic activity was determined in BDF1 mice implanted with P388 leukemia and activity is expressed as T/C at 10 mg/kg ip dose (Q4dx2 treatment); format: functional, Mus musculus; settings: route intraperitoneal
P388 [36] = experiment: In vivo antineoplastic activity was determined in BDF1 mice implanted with P388 leukemia and activity is expressed as T/C at 160 mg/kg ip dose (Q4dx2 treatment); format: functional, Mus musculus; settings: route intraperitoneal
P388 [37] = experiment: In vivo antineoplastic activity was determined in BDF1 mice implanted with P388 leukemia and activity is expressed as T/C at 20 mg/kg ip dose (Q4dx2 treatment); format: functional, Mus musculus; settings: route intraperitoneal
P388 [38] = experiment: In vivo antineoplastic activity was determined in BDF1 mice implanted with P388 leukemia and activity is expressed as T/C at 120 mg/kg ip dose (Q1dx5 treatment); settings: route intraperitoneal; remark: listed apart in the source
P388 [39] = experiment: In vivo antineoplastic activity was determined in BDF1 mice implanted with P388 leukemia and activity is expressed as T/C at 50 mg/kg ip dose (Q4dx2 treatment); format: functional, Mus musculus; settings: route intraperitoneal

## CN(C)CCNc1ccc(Cl)c2c1C(=O)c1c(Cl)ccc(NCCN(C)C)c1C2=O
[1]
  CC50: 229 nM
L1210
  CC50: 385 nM
P388 [2]
  T/C: 115
P388 [3]
  T/C: 128
P388 [4]
  T/C: 123

## O=C1c2c(O)ccc(Cl)c2C(=O)c2c(NCCNCCO)ccc(Cl)c21
P388 [3]
  T/C: 96
P388 [4]
  T/C: 111

## CN(C)CCCNc1ccc(Cl)c2c1C(=O)c1c(O)ccc(O)c1C2=O
L1210
  CC50: 265 nM
P388 [5]
  T/C: 123
P388 [6]
  T/C: 109
P388 [7]
  T/C: 129

## CN(C)CCNc1ccc(Cl)c2c1C(=O)c1c(O)ccc(O)c1C2=O
L1210
  CC50: 36.2 nM
P388 [5]
  T/C: 137
P388 [6]
  T/C: 121
P388 [7]
  T/C: 169

## CN(C)CCNc1ccc(Cl)c2c1C(=O)c1c(NCCN(C)C)ccc(Cl)c1C2=O
L1210
  CC50: 1670 nM
P388 [8]
  T/C: 113
P388 [9]
  T/C: 119

## O=C1c2cccc(Cl)c2C(=O)c2c(NCCNCCO)cccc21
P388 [10]
  T/C: 116
P388 [11]
  T/C: 124
P388 [12]
  T/C: 120

## CN(C)CCNc1ccc(Cl)c2c1C(=O)c1c(Cl)ccc(O)c1C2=O
L1210
  CC50: 1130 nM
P388 [13]
  T/C: 117
P388 [14]
  T/C: 103

## O=C1c2cccc(NCCNCCO)c2C(=O)c2cccc(Cl)c21
[1]
  CC50: 1400 nM
L1210
  CC50: 1170 nM
P388 [2]
  T/C: 100
P388 [3]
  T/C: 105

## O=C1c2c(O)ccc(O)c2C(=O)c2c(NCCNCCO)ccc(NCCNCCO)c21 [MITOXANTRONE]
P388 [15]
  T/C: 200
P388 [16]
  T/C: 280
P388 [17]
  T/C: 299
P388 [18]
  T/C: 277
P388 [19]
  T/C: 208
P388 [20]
  T/C: 280

## O=C1c2c(O)ccc(NCCNCCO)c2C(=O)c2c(Cl)ccc(Cl)c21
B16 [21]
  T/C: 271
B16 [22]
  T/C: 199
B16 [23]
  T/C: 252
B16 [24]
  T/C: 166
B16 [25]
  T/C: 172
B16 [26]
  T/C: 231
B16 [27]
  T/C: 224
B16 [28]
  T/C: 270
B16 [29]
  T/C: 326
L1210
  CC50: 86.6 nM
P388 [30]
  T/C: 154
P388 [31]
  T/C: 146
P388 [32]
  T/C: 203
P388 [33]
  T/C: 180
P388 [34]
  T/C: 219

## O=C1c2c(O)ccc(O)c2C(=O)c2c(NCCNCCO)ccc(Cl)c21
L1210
  CC50: 398 nM
P388 [13]
  T/C: 154
P388 [35]
  T/C: 113
P388 [36]
  T/C: 184
P388 [37]
  T/C: 125
P388 [14]
  T/C: 130

## CN(C)CCNc1ccc(Cl)c2c1C(=O)c1c(O)ccc(Cl)c1C2=O
L1210
  CC50: 176 nM
P388 [3]
  T/C: 113
P388 [4]
  T/C: 125

## CN(C)CCNc1ccc(O)c2c1C(=O)c1c(Cl)ccc(Cl)c1C2=O
[1]
  CC50: 522 nM
L1210
  CC50: 86.9 nM
P388 [5]
  T/C: 150
P388 [6]
  T/C: 136
P388 [38]
  T/C: 176

## CN(C)CCNc1ccc(NCCN(C)C)c2c1C(=O)c1c(Cl)ccc(Cl)c1C2=O
B16 [22]
  T/C: 141
B16 [23]
  T/C: 133
B16 [24]
  T/C: 117
B16 [25]
  T/C value: 143
[1]
  CC50: 130 nM
L1210
  CC50: 117 nM
P388 [2]
  T/C: 120
P388 [3]
  T/C: 117
P388 [39]
  T/C: 110
